Source: PubChem BioAssay (NCI)
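Interpolation was linear, between the two tested concentrations surrounding the appropriate level; five concentrations were tested over 48 hours in 96-well plates. GI50 is the concentration that inhibits growth by half. The concentration for full growth arrest is given as TGI.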

How the values were obtained:
Assay in all cases: growth of human tumour cells (NCI), 48 h
CAKI-1 renal = test system: CAKI-1 renal
NCI-H522 lung = test system: NCI-H522 lung
A498 renal = test system: A498 renal
HOP-62 NSCLC = test system: HOP-62 NSCLC
U251 CNS = test system: U251 CNS
NCI-H23 lung = test system: NCI-H23 lung
KM12 colon = test system: KM12 colon
HCT-15 colon = test system: HCT-15 colon
T-47D breast = test system: T-47D breast
K-562 leukemia = test system: K-562 leukemia
MALME-3M melanoma = test system: MALME-3M melanoma
UACC-62 melanoma = test system: UACC-62 melanoma
SNB-19 CNS = test system: SNB-19 CNS
HL-60(TB) leukemia = test system: HL-60(TB) leukemia
M14 melanoma = test system: M14 melanoma
SF-268 CNS = test system: SF-268 CNS
DU-145 prostate = test system: DU-145 prostate
IGROV1 ovarian = test system: IGROV1 ovarian
HS 578T breast = test system: HS 578T breast
COLO 205 colon = test system: COLO 205 colon
HCT-116 colon = test system: HCT-116 colon
786-0 renal = test system: 786-0 renal
OVCAR-8 ovarian = test system: OVCAR-8 ovarian
SK-MEL-2 melanoma = test system: SK-MEL-2 melanoma
SK-MEL-28 melanoma = test system: SK-MEL-28 melanoma
SK-MEL-5 melanoma = test system: SK-MEL-5 melanoma
OVCAR-4 ovarian = test system: OVCAR-4 ovarian
PC-3 prostate = test system: PC-3 prostate
ACHN renal = test system: ACHN renal
CCRF-CEM leukemia = test system: CCRF-CEM leukemia
SF-539 CNS = test system: SF-539 CNS
BT-549 breast = test system: BT-549 breast
UO-31 renal = test system: UO-31 renal
SK-OV-3 ovarian = test system: SK-OV-3 ovarian
UACC-257 melanoma = test system: UACC-257 melanoma
NCI-H460 lung = test system: NCI-H460 lung
LOX IMVI melanoma = test system: LOX IMVI melanoma
OVCAR-5 ovarian = test system: OVCAR-5 ovarian
A549 NSCLC = test system: A549 NSCLC
SN12C renal = test system: SN12C renal
RPMI-8226 leukemia = test system: RPMI-8226 leukemia
SF-295 CNS = test system: SF-295 CNS
MDA-MB-231 breast = test system: MDA-MB-231 breast
SNB-75 CNS = test system: SNB-75 CNS
HOP-92 NSCLC = test system: HOP-92 NSCLC
MCF7 breast = test system: MCF7 breast
HT29 colon = test system: HT29 colon
MOLT-4 leukemia = test system: MOLT-4 leukemia
SW-620 colon = test system: SW-620 colon
TK-10 renal = test system: TK-10 renal
HCC-2998 colon = test system: HCC-2998 colon
MDA-MB-435 = test system: MDA-MB-435
NCI/ADR-RES ovarian = test system: NCI/ADR-RES ovarian
RXF 393 renal = test system: RXF 393 renal
NCI-H226 lung = test system: NCI-H226 lung

COc1cc(C2c3cc4c(cc3C3OC(=O)C2C3CO)OCO4)cc(OC)c1OC (stereo unspecified) was tested. Which GI50 (CAKI-1 renal) did it give?
The GI50 was 0.0511 µM.

What about the TGI (CAKI-1 renal) of the same molecule?
The TGI was > 100 µM.

And the GI50 (NCI-H522 lung)?
The GI50 was < 0.01 µM.

What about the TGI (NCI-H522 lung) of the same molecule?
The TGI was 0.0351 µM.

What about the GI50 (A498 renal) of the same molecule?
Its GI50 is < 0.01 µM.

What about the TGI (A498 renal) of the same molecule?
Its TGI is 0.0605 µM.

And the GI50 (HOP-62 NSCLC)?
Its GI50 is 0.0339 µM.

What about the TGI (HOP-62 NSCLC) of the same molecule?
The TGI was > 100 µM.

What about the GI50 (U251 CNS) of the same molecule?
Its GI50 is 0.0354 µM.

What about the TGI (U251 CNS) of the same molecule?
Its TGI is > 100 µM.

And the GI50 (NCI-H23 lung)?
The GI50 was 0.0317 µM.

What about the TGI (NCI-H23 lung) of the same molecule?
The TGI was > 100 µM.

What about the GI50 (KM12 colon) of the same molecule?
The GI50 was 0.0132 µM.

What about the TGI (KM12 colon) of the same molecule?
The TGI was > 100 µM.

And the GI50 (HCT-15 colon)?
The GI50 was 0.0272 µM.

What about the TGI (HCT-15 colon) of the same molecule?
The TGI was > 100 µM.

What about the GI50 (T-47D breast) of the same molecule?
Its GI50 is 0.0181 µM.

What about the TGI (T-47D breast) of the same molecule?
Its TGI is > 100 µM.

And the GI50 (K-562 leukemia)?
The GI50 was 0.0205 µM.

And the TGI (K-562 leukemia)?
Its TGI is > 100 µM.

And the GI50 (MALME-3M melanoma)?
Its GI50 is 0.0262 µM.

And the TGI (MALME-3M melanoma)?
Its TGI is > 100 µM.

What about the GI50 (UACC-62 melanoma) of the same molecule?
Its GI50 is < 0.0136 µM.

What about the TGI (UACC-62 melanoma) of the same molecule?
Its TGI is > 100 µM.

What about the TGI (SNB-19 CNS) of the same molecule?
Its TGI is > 100 µM.

What about the GI50 (HL-60(TB) leukemia) of the same molecule?
Its GI50 is 0.0207 µM.

And the TGI (HL-60(TB) leukemia)?
The TGI was 0.0748 µM.

And the GI50 (M14 melanoma)?
The GI50 was 0.0333 µM.

What about the TGI (M14 melanoma) of the same molecule?
Its TGI is > 100 µM.

What about the GI50 (SF-268 CNS) of the same molecule?
The GI50 was 0.0395 µM.

What about the TGI (SF-268 CNS) of the same molecule?
The TGI was > 100 µM.

And the GI50 (DU-145 prostate)?
Its GI50 is 0.0285 µM.

What about the GI50 (IGROV1 ovarian) of the same molecule?
The GI50 was 0.035 µM.

What about the TGI (IGROV1 ovarian) of the same molecule?
The TGI was > 100 µM.

And the GI50 (HS 578T breast)?
Its GI50 is 0.043 µM.

And the TGI (HS 578T breast)?
Its TGI is > 100 µM.

What about the GI50 (COLO 205 colon) of the same molecule?
The GI50 was 0.0188 µM.

What about the TGI (COLO 205 colon) of the same molecule?
The TGI was 0.0372 µM.

And the GI50 (HCT-116 colon)?
Its GI50 is 0.0191 µM.

And the TGI (HCT-116 colon)?
The TGI was > 100 µM.

And the GI50 (786-0 renal)?
The GI50 was 0.0437 µM.

What about the TGI (786-0 renal) of the same molecule?
Its TGI is > 100 µM.

What about the GI50 (OVCAR-8 ovarian) of the same molecule?
Its GI50 is 0.0274 µM.

And the TGI (OVCAR-8 ovarian)?
The TGI was > 100 µM.

And the GI50 (SK-MEL-2 melanoma)?
The GI50 was 0.0337 µM.

And the TGI (SK-MEL-2 melanoma)?
Its TGI is > 100 µM.

And the GI50 (SK-MEL-28 melanoma)?
Its GI50 is 8.68 µM.

What about the TGI (SK-MEL-28 melanoma) of the same molecule?
The TGI was > 100 µM.

What about the GI50 (SK-MEL-5 melanoma) of the same molecule?
The GI50 was 0.0176 µM.

And the TGI (SK-MEL-5 melanoma)?
The TGI was 0.047 µM.

What about the GI50 (OVCAR-4 ovarian) of the same molecule?
The GI50 was 0.0446 µM.

What about the TGI (OVCAR-4 ovarian) of the same molecule?
Its TGI is > 100 µM.

What about the GI50 (PC-3 prostate) of the same molecule?
The GI50 was 0.0285 µM.

What about the TGI (PC-3 prostate) of the same molecule?
The TGI was > 100 µM.

What about the GI50 (ACHN renal) of the same molecule?
The GI50 was 0.0344 µM.

And the TGI (ACHN renal)?
The TGI was > 100 µM.

And the GI50 (CCRF-CEM leukemia)?
Its GI50 is 0.0271 µM.

And the TGI (CCRF-CEM leukemia)?
Its TGI is > 100 µM.

And the GI50 (SF-539 CNS)?
The GI50 was < 0.0122 µM.

What about the TGI (SF-539 CNS) of the same molecule?
The TGI was 0.0668 µM.

What about the GI50 (BT-549 breast) of the same molecule?
Its GI50 is 0.0334 µM.

What about the TGI (BT-549 breast) of the same molecule?
Its TGI is 9.27 µM.

What about the GI50 (UO-31 renal) of the same molecule?
Its GI50 is 0.0644 µM.

What about the TGI (UO-31 renal) of the same molecule?
The TGI was > 100 µM.

And the GI50 (SK-OV-3 ovarian)?
The GI50 was 0.0217 µM.

What about the TGI (SK-OV-3 ovarian) of the same molecule?
Its TGI is 0.0722 µM.

What about the TGI (UACC-257 melanoma) of the same molecule?
Its TGI is > 100 µM.

What about the GI50 (NCI-H460 lung) of the same molecule?
Its GI50 is 0.0299 µM.

What about the TGI (NCI-H460 lung) of the same molecule?
Its TGI is > 100 µM.

And the GI50 (LOX IMVI melanoma)?
Its GI50 is < 0.01 µM.

What about the TGI (LOX IMVI melanoma) of the same molecule?
Its TGI is > 100 µM.

What about the GI50 (OVCAR-5 ovarian) of the same molecule?
The GI50 was 0.0539 µM.

And the TGI (OVCAR-5 ovarian)?
Its TGI is > 100 µM.

And the GI50 (A549 NSCLC)?
The GI50 was 0.0294 µM.

And the TGI (A549 NSCLC)?
Its TGI is > 100 µM.

What about the GI50 (SN12C renal) of the same molecule?
Its GI50 is 0.0457 µM.

And the TGI (SN12C renal)?
Its TGI is > 100 µM.

And the GI50 (RPMI-8226 leukemia)?
The GI50 was 0.0282 µM.

What about the TGI (RPMI-8226 leukemia) of the same molecule?
Its TGI is > 100 µM.

And the GI50 (SF-295 CNS)?
Its GI50 is 0.0182 µM.

What about the TGI (SF-295 CNS) of the same molecule?
Its TGI is 0.166 µM.

And the GI50 (MDA-MB-231 breast)?
Its GI50 is 0.03 µM.

And the TGI (MDA-MB-231 breast)?
The TGI was 0.0901 µM.

What about the GI50 (SNB-75 CNS) of the same molecule?
The GI50 was 0.0415 µM.

And the TGI (SNB-75 CNS)?
Its TGI is > 100 µM.

What about the GI50 (HOP-92 NSCLC) of the same molecule?
The GI50 was < 0.0108 µM.

And the TGI (HOP-92 NSCLC)?
The TGI was 0.0869 µM.

What about the GI50 (MCF7 breast) of the same molecule?
The GI50 was < 0.01 µM.

What about the TGI (MCF7 breast) of the same molecule?
The TGI was > 100 µM.

And the GI50 (HT29 colon)?
The GI50 was 0.012 µM.

And the TGI (HT29 colon)?
The TGI was > 100 µM.

And the GI50 (MOLT-4 leukemia)?
Its GI50 is 0.0385 µM.

What about the TGI (MOLT-4 leukemia) of the same molecule?
The TGI was > 100 µM.

And the GI50 (SW-620 colon)?
Its GI50 is 0.0244 µM.

What about the TGI (SW-620 colon) of the same molecule?
The TGI was > 100 µM.

And the GI50 (TK-10 renal)?
Its GI50 is 0.0535 µM.

And the TGI (TK-10 renal)?
The TGI was > 100 µM.

And the GI50 (HCC-2998 colon)?
Its GI50 is 0.0297 µM.

What about the TGI (HCC-2998 colon) of the same molecule?
The TGI was 0.0899 µM.

What about the GI50 (MDA-MB-435) of the same molecule?
Its GI50 is 0.01 µM.

What about the TGI (MDA-MB-435) of the same molecule?
Its TGI is 0.0374 µM.

What about the GI50 (NCI/ADR-RES ovarian) of the same molecule?
The GI50 was 0.0181 µM.

What about the TGI (NCI/ADR-RES ovarian) of the same molecule?
Its TGI is 0.0607 µM.

And the GI50 (RXF 393 renal)?
The GI50 was < 0.0162 µM.

And the GI50 (NCI-H226 lung)?
The GI50 was 0.0616 µM.

And the TGI (NCI-H226 lung)?
Its TGI is > 100 µM.
